From patent US12616200B2, “Herbicidal combinations comprising diflufenican and mesotrione” (priority 2020, dated 2026)

Experiments:
[1] = test system: AMATU WR-2012-017-08 (resistant against HPPD-inhibitor herbicides and atrazine (PSII-inhibitor)); test: Greenhouse pre-emergence herbicidal activity, AMATU WR-2012-017-08; format: in vivo, Amaranthus tuberculatus; settings: 3 weeks, mean of 6
[2] = test system: AMATU WR-2013-044 (resistant against HPPD-inhibitor herbicides and atrazine (PSII-inhibitor)); test: Greenhouse pre-emergence herbicidal activity, AMATU WR-2013-044; format: in vivo, Amaranthus tuberculatus; settings: 3 weeks, mean of 6

SMILES | Activity [%] against AMATU WR-2012-017-08 ([1]; rate 52 g/ha) | Activity [%] against AMATU WR-2012-017-08 ([1]; rate 105 g/ha) | Activity [%] against AMATU WR-2013-044 ([2]; rate 52 g/ha) | Activity [%] against AMATU WR-2013-044 ([2]; rate 105 g/ha) | Activity [%] against AMATU WR-2012-017-08 ([1]; rate 75 g/ha) | Activity [%] against AMATU WR-2012-017-08 ([1]; rate 150 g/ha) | Activity [%] against AMATU WR-2013-044 ([2]; rate 75 g/ha) | Activity [%] against AMATU WR-2013-044 ([2]; rate 150 g/ha)
CS(=O)(=O)c1ccc(C(=O)C2C(=O)CCCC2=O)c([N+](=O)[O-])c1 [MST, 2-[4-(methylsulfonyl)-2-nitrobenzoyl]cyclohexane-1,3-dione] | 59.2% | 84.2% | 70.0% | 76.7% | – | – | – | –
O=C(Nc1ccc(F)cc1F)c1cccnc1Oc1cccc(C(F)(F)F)c1 [DFF, 2′,4′-difluoro-2-[3-(trifluoromethyl)phenoxy]pyridine-3-carboxanilide] | – | – | – | – | 66.7% | 86.3% | 69.2% | 80.8%
